Assay results taken from US10118928B2, “Treatment of H. pylori infections using MTAN inhibitors” (ALBERT EINSTEIN COLLEGE OF MEDICINE, INC., priority 2014, dated 2018).
In brackets after ≈: the same amount, converted by molar mass. Like-named read-outs stand apart in the source and are kept apart here.

How the values were obtained:
[1] = test system: H. pylori UNT020-1 (Sydney Strain SS1); test: MIC by agar dilution (MHIIb agar), strain UNT020-1; format: cell-based; details: Helicobacter pylori, 72 h
Method: (§1) (a) Sample Plate Preparation: Aliquots of a 2-fold serial dilution of Hexyl-SerMe-Immucillin A (from 62.5 μg/mL-6.25 μg/mL in DMSO, 0.02 mL) were mixed into separate 2 mL molten MHIIb agar, and poured into separate wells on each well of a 12-well plate, allowed to set for 20-30 minutes and dry in a biosafety cabinet for 10 minutes prior to Inoculation.
(§2) (b) Inoculation: Frozen inoculate stock of H. pylori strains UNT020-1 (Sydney Strain SS1) and UNT189-1 (ATCC43504) was separately streaked onto Columbia+5% sheep blood agar and microaerophilically incubated for 72 h at 37° C. The plate cultures of the H. pylori strains were then harvested in 0.9% sterile saline solution and the OD at 530 nm of the suspension was determined. The OD of each suspension was adjusted to 1.5-2.0 by dilution into 0.9% sterile saline. The UNT020-1 suspension was further diluted 2:5, but the UNT189-1 suspension was not further diluted, and these were used to inoculate the agar plates. Samples of the suspensions (3 μL) were spotted onto the MHIIb agar wells in the 12-well plate. The CFU/mL of each inoculum was confirmed by generating a 10-fold serial dilution of each inoculum in 0.9% sterile saline and spotting 8 μL of each dilution onto Columbia+5% sheep blood agar plates. After allowing the spots to dry for 10 min, the plates were placed into a microaerophilic chamber and incubated at 37° C. for 72 h.

[2] = Concentration in mouse gastric mucin after a single oral dose; format: in vivo; details: for concentration at 0.25 h / concentration at 0.5 h / concentration at 1 h / concentration at 2 h / concentration at 4 h / concentration at 8 h / concentration at 12 h / concentration at 24 h: C57/BL6, mouse, gastric mucin, po, 10 mg/kg, mouse; for concentration at 0.25 h: 0.25 h after single dose 10 mg/kg PO; for concentration at 0.5 h: 0.50 h after single dose 10 mg/kg PO; for concentration at 1 h: 1.00 h after single dose 10 mg/kg PO; for concentration at 2 h: 2.00 h after single dose 10 mg/kg PO; for concentration at 4 h: 4.00 h after single dose 10 mg/kg PO; for concentration at 8 h: 8.00 h after single dose 10 mg/kg PO; for concentration at 12 h: 12.0 h after single dose 10 mg/kg PO; for concentration at 24 h: 24.0 h after single dose 10 mg/kg PO
Method: (a) Oral Dosing of Mice with 10 mg/kg Hexyl-SerMe-Immucillin A: Female C57/BL6 mice ranging from 5-6 weeks in age and 18-22 grams in weight (Harlan Laboratories) were dosed by oral gavage with of Hexyl-SerMe-Immucillin A (0.4 mL of a 0.5 mg/mL solution in water for injection).
(b) Mucin Sampling: Mice (3 mice/time point) were euthanized via CO2 inhalation at 0.25, 0.5, 1, 2, 4, 8, 12 and 24 h, then the mucin layer was scraped from the longitudinally dissected stomach using a glass slide, collected and weighed.
(c) Preparation of Gastric Mucin Homogenates: Approximately 30 mg of mouse mucin was weighted into a 2 mL homogenizer tube (prefilled with 3.0 mm i.d. zirconium beads) and mixed with 0.2 mL PBS buffer. This was homogenized for 3 min at 4,000 rpm in a Beadbug D1030 (Benchmark Scientific) homogenizer.
(d) Extraction of Gastric Mucin Homogenates: Samples of mucin homogenate (50 μL) and of internal standard (see below) in water (10 μL) were treated with trichloroacetic acid (30% w/v, 30 μL), diluted with water (160 μL), vortexed for 10 sec and sonicated for 10 min, then centrifuged at 14,500 rpm for 5 min. A sample of the supernatant (160 μL) was transferred into autosampler vials. The internal standard was Butylthio-DADMe-Immucillin-H at 5.0 and 20.0 μg/mL.
(f) HPLC-MS-MS Analysis: Aliquots of supernatant (10 μL) were injected for analysis on Surveyor HPLC system (Thermo) fitted with an ACE 3 C18 Column (50×3 mm, 3 μm particles), with gradient elution at 30° C. with 400 μL/min mobile phase comprised of mixtures of 0.1% trifluoroacetic acid in water (A) and methanol (B) as follows: 0-5 min, A:B 9:1; 5-6.1 min, A:B 1:9; 6.1-10 min A:B 9:1. Hexyl-SerMe-Immucillin A eluted at 4.41±0.003 min. Detection was ESI MS/MS using a LCQ Deca (Thermo) in selected-reaction monitoring (SRM) positive mode using the MS/MS event m/z 292.2→147.2 and ion spray voltage of 4.5 kV.

[3] = test system: H. pylori UNT189-1 (ATCC43504); test: MIC by agar dilution (MHIIb agar), strain UNT189-1; format: cell-based; details: Helicobacter pylori, 72 h
Method: as §1, §2

[4] = female, read-out: concentration in gastric mucin, Animal-1
[5] = female, read-out: concentration in gastric mucin, Animal-2
[6] = female, read-out: concentration in gastric mucin, Animal-3
[7] = female, read-out: concentration in gastric mucin, Mean

MIC [1]: 1.9 ng/mL (≈ 6.52 nM)
concentration at 0.25 h [2, 4]: 60400 ng/g
concentration at 0.25 h [2, 5]: 64400 ng/g
concentration at 0.25 h [2, 6]: 45900 ng/g
concentration at 0.25 h [2, 7]: 56900 ng/g
concentration at 0.5 h [2, 4]: 46200 ng/g
concentration at 0.5 h [2, 5]: 90200 ng/g
concentration at 0.5 h [2, 6]: 60200 ng/g
concentration at 0.5 h [2, 7]: 65500 ng/g
concentration at 1 h [2, 4]: 20400 ng/g
concentration at 1 h [2, 5]: 12200 ng/g
concentration at 1 h [2, 6]: 12000 ng/g
concentration at 1 h [2, 7]: 14900 ng/g
concentration at 2 h [2, 4]: 2020 ng/g
concentration at 2 h [2, 5]: 1080 ng/g
concentration at 2 h [2, 6]: 16200 ng/g
concentration at 2 h [2, 7]: 6440 ng/g
concentration at 4 h [2, 4]: 670 ng/g
concentration at 4 h [2, 5]: 3740 ng/g
concentration at 4 h [2, 6]: 910 ng/g
concentration at 4 h [2, 7]: 1770 ng/g
concentration at 8 h [2, 4]: 650 ng/g
concentration at 8 h [2, 5]: 1620 ng/g
concentration at 8 h [2, 6]: 530 ng/g
concentration at 8 h [2, 7]: 930 ng/g
concentration at 12 h [2, 4]: 960 ng/g
concentration at 12 h [2, 5]: 950 ng/g
concentration at 12 h [2, 6]: 330 ng/g
concentration at 12 h [2, 7]: 740 ng/g
concentration at 24 h [2, 4]: 540 ng/g
concentration at 24 h [2, 5]: 390 ng/g
concentration at 24 h [2, 6]: 300 ng/g
concentration at 24 h [2, 7]: 410 ng/g
Cmax ([2]; female, C57/BL6, mouse gastric mucin, 10 mg/kg oral gavage): 65500 ng/g
half-life ([2]; female, C57/BL6, mouse gastric mucin, 10 mg/kg oral gavage, read-out: terminal half-life (converted)): 2.72 h
total exposure [AUC(0-inf)] ([2]; mouse gastric mucin, 10 mg/kg oral gavage): 78.6 µg·h/g
MIC [3]: 1.9 ng/mL (≈ 6.52 nM)
SMILES: CCCCCC[C@@H](CO)NCc1c[nH]c2c(N)ncnc12 [Hexyl-SerMe-Immucillin A, (2S)-2-[({4-Amino-5H-pyrrolo[3,2-d]pyrimidin-7-yl}methyl)amino]octan-1-ol]
